Publication PMC8085340, “Inhibiting Pyridoxal Kinase of Entamoeba histolytica Is Lethal for This Pathogen” (Frontiers in Cellular and Infection Microbiology, 2021)

Target: T1, EhPLK (pyridoxal kinase) (Entamoeba histolytica, UniProt C4LVZ4)
T1 construct: gene EHI_126090; recombinant histidine-tagged EhPLK
T1 sequence (C4LVZ4 1-279): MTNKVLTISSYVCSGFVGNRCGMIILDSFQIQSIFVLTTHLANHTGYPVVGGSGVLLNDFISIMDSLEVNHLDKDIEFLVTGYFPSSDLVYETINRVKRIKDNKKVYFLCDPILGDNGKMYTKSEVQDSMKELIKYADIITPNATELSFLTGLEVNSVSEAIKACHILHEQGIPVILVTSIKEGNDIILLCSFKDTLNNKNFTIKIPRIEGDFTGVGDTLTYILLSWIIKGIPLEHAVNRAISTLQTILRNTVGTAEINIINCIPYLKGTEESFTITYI
Assay: spectrophotometric PLP formation assay at […] nm with purified enzyme; partial inhibition (maximum […])
Type: biochemical

IC50	SMILES
~250 µM	O=S1(=O)CCCN1c1ccc(Nc2ncnc3ccsc23)cc1 [compound 1, N-[4-(1,1-dioxo-1,2-thiazolidin-2-yl)phenyl]thieno[3,2-d]pyrimidin-4-amine]
~100 µM	O=S1(=O)CCCN1c1ccc(Nc2ncnc3sccc23)cc1 [compound 2, N-[4-(1,1-dioxo-1,2-thiazolidin-2-yl)phenyl]thieno[2,3-d]pyrimidin-4-amine]
